Test results published in ChEMBL document CHEMBL1201862, “PubChem BioAssay data set” (2004).
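Five concentrations, 48 hours, 96-well plates. GI50 is the concentration that inhibits growth by half.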 The source made the active and inactive calls. No stated cut-off is given here; in the data, active = GI50 up to about 1.1 µM and inactive = higher.

How the values were obtained:
Assay in all cases: inhibition of tumour cell growth, NCI panel, 48 h
[1] = test system: 786-0
[2] = test system: A498
[3] = test system: A549
[4] = test system: ACHN
[5] = test system: CAKI-1
[6] = test system: CCRF-CEM
[7] = test system: COLO 205
[8] = test system: DMS-114
[9] = test system: DMS-273
[10] = test system: EKVX
[11] = test system: HCC 2998
[12] = test system: HCT-116
[13] = test system: HCT-15
[14] = test system: HL-60
[15] = test system: HOP-62
[16] = test system: HOP-92
[17] = test system: HT-29
[18] = test system: IGROV-1
[19] = test system: K562
[20] = test system: KM-20L2
[21] = test system: KM12
[22] = test system: LOX IMVI
[23] = test system: LXFL 529
[24] = test system: M14
[25] = test system: M19-MEL
[26] = test system: MOLT-4
[27] = test system: Malme-3M
[28] = test system: NCI-H226
[29] = test system: NCI-H23
[30] = test system: NCI-H460
[31] = test system: NCI-H522
[32] = test system: OVCAR-3
[33] = test system: OVCAR-4
[34] = test system: OVCAR-5
[35] = test system: OVCAR-8
[36] = test system: RPMI-8226
[37] = test system: RXF 393
[38] = test system: RXF 631
[39] = test system: SF-268
[40] = test system: SF-295
[41] = test system: SF-539
[42] = test system: SK-MEL-28
[43] = test system: SK-MEL-2
[44] = test system: SK-MEL-5
[45] = test system: SK-OV-3
[46] = test system: SN12C
[47] = test system: SNB-19
[48] = test system: SNB-75
[49] = test system: SNB-78
[50] = test system: SR
[51] = test system: SW-620
[52] = test system: TK-10
[53] = test system: U-251
[54] = test system: UACC-257
[55] = test system: UACC-62
[56] = test system: UO-31
[57] = test system: XF498
[58] = test system: DLD-1

Measured: GI50

Cc1cc2c(cc1C)[n+]([O-])c(C(=O)CC(=O)C(=O)Nc1ccccc1C(C)C)c(C)[n+]2[O-]
> 100 µM: [13]
inactive: [1] > 100 µM | [2] > 100 µM | [3] > 100 µM | [4] > 100 µM | [5] > 100 µM | [6] > 100 µM | [7] > 100 µM | [8] > 100 µM | [9] > 100 µM | [10] > 100 µM | [11] > 100 µM | [12] > 100 µM | [14] > 100 µM | [15] > 100 µM | [16] > 100 µM | [17] > 100 µM | [18] > 100 µM | [19] > 100 µM | [20] > 100 µM | [21] > 100 µM | [22] > 100 µM | [23] > 100 µM | [24] > 100 µM | [25] > 100 µM | [26] > 100 µM | [27] > 100 µM | [28] > 100 µM | [29] > 100 µM | [30] > 100 µM | [31] > 100 µM | [32] > 100 µM | [33] > 100 µM | [34] > 100 µM | [35] > 100 µM | [36] > 100 µM | [37] > 100 µM | [38] > 100 µM | [39] > 100 µM | [40] > 100 µM | [41] > 100 µM | [42] > 100 µM | [43] > 100 µM | [44] > 100 µM | [45] > 100 µM | [46] > 100 µM | [47] > 100 µM | [48] > 100 µM | [49] > 100 µM | [50] > 100 µM | [51] > 100 µM | [52] 25.5 µM | [53] > 100 µM | [55] > 100 µM | [56] > 100 µM | [57] > 100 µM
active: [54] 1.08 µM

Cc1c2cc[n+](C)cc2c(C)c2c1[nH]c1ccc(O)c(OCC(F)(F)F)c12
active: [8] 0.938 µM | [23] 0.807 µM | [28] 0.432 µM | [29] 0.984 µM | [31] 1.01 µM | [32] 0.895 µM | [39] 0.164 µM | [40] 0.839 µM | [46] 0.34 µM | [47] 0.218 µM | [48] 0.188 µM | [53] 0.301 µM
inactive: [1] 1.46 µM | [2] 10.8 µM | [3] 1.87 µM | [5] 12.8 µM | [6] 4.97 µM | [7] 1.77 µM | [58] 2.34 µM | [9] 1.58 µM | [10] 2.68 µM | [11] 4.55 µM | [12] 4.97 µM | [14] 2.5 µM | [15] 1.12 µM | [16] 4.91 µM | [17] 9.82 µM | [18] 5.86 µM | [19] 2.39 µM | [20] 7.13 µM | [22] 13 µM | [24] 6.22 µM | [25] 2.42 µM | [26] 2.42 µM | [27] 1.63 µM | [30] 1.51 µM | [33] 1.26 µM | [34] 7.11 µM | [35] 1.85 µM | [36] 2.22 µM | [38] 2.78 µM | [41] 2.04 µM | [42] 5.65 µM | [43] 4.63 µM | [44] 1.51 µM | [45] 6.75 µM | [49] 1.16 µM | [51] 6.67 µM | [52] 11.2 µM | [54] 6.31 µM | [55] 5.66 µM | [56] 7.06 µM | [57] 1.2 µM
